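Results reflect a 48-hour exposure of cells in 96-well plates to compound at five concentrations. GI50: concentration for 50% inhibition of growth.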 Active and inactive are the calls of the source. Rule as the data show it: active = GI50 up to about 1.1 µM and inactive = higher.
How the values were obtained:
Experiment in all cases: growth of human tumour cells (NCI), 48 h
[1] = test system: 786-0
[2] = test system: A498
[3] = test system: A549
[4] = test system: ACHN
[5] = test system: CAKI-1
[6] = test system: CCRF-CEM
[7] = test system: DLD-1
[8] = test system: DMS-114
[9] = test system: DMS-273
[10] = test system: EKVX
[11] = test system: HCT-116
[12] = test system: HL-60
[13] = test system: HOP-62
[14] = test system: HOP-92
[15] = test system: HT-29
[16] = test system: IGROV-1
[17] = test system: K562
[18] = test system: KM-20L2
[19] = test system: KM12
[20] = test system: M14
[21] = test system: M19-MEL
[22] = test system: MOLT-4
[23] = test system: Malme-3M
[24] = test system: NCI-H226
[25] = test system: NCI-H23
[26] = test system: NCI-H460
[27] = test system: NCI-H522
[28] = test system: OVCAR-3
[29] = test system: OVCAR-4
[30] = test system: OVCAR-5
[31] = test system: OVCAR-8
[32] = test system: RXF 393
[33] = test system: SF-268
[34] = test system: SF-295
[35] = test system: SF-539
[36] = test system: SK-MEL-28
[37] = test system: SK-MEL-2
[38] = test system: SK-MEL-5
[39] = test system: SK-OV-3
[40] = test system: SN12C
[41] = test system: SNB-19
[42] = test system: SNB-75
[43] = test system: SNB-78
[44] = test system: SR
[45] = test system: SW-620
[46] = test system: TK-10
[47] = test system: U-251
[48] = test system: UACC-257
[49] = test system: UACC-62
[50] = test system: UO-31
[51] = test system: XF498
[52] = test system: COLO 205
[53] = test system: LXFL 529
[54] = test system: RPMI-8226
[55] = test system: BT-549
[56] = test system: DU-145
[57] = test system: HCC 2998
[58] = test system: HCT-15
[59] = test system: Hs-578T
[60] = test system: LOX IMVI
[61] = test system: MCF7
[62] = test system: MDA-MB-231
[63] = test system: MDA-MB-435
[64] = test system: MDA-N
[65] = test system: NCI/ADR-RES
[66] = test system: PC-3
[67] = test system: T47D

Measured: GI50

CC(=O)CNC(=O)OC(C)(C)C
inactive: [1] > 100 µM | [2] > 100 µM | [3] > 100 µM | [4] > 100 µM | [5] > 100 µM | [6] > 100 µM | [7] > 100 µM | [8] > 100 µM | [9] > 100 µM | [10] > 100 µM | [11] > 100 µM | [12] > 100 µM | [13] > 100 µM | [14] > 100 µM | [15] > 100 µM | [16] > 100 µM | [17] > 100 µM | [18] > 100 µM | [19] > 100 µM | [20] > 100 µM | [21] > 100 µM | [22] > 100 µM | [23] > 100 µM | [24] > 100 µM | [25] > 100 µM | [26] > 100 µM | [27] > 100 µM | [28] > 100 µM | [29] > 100 µM | [30] > 100 µM | [31] > 100 µM | [32] > 100 µM | [33] > 100 µM | [34] > 100 µM | [35] > 100 µM | [36] > 100 µM | [37] > 100 µM | [38] > 100 µM | [39] > 100 µM | [40] > 100 µM | [41] > 100 µM | [42] > 100 µM | [43] > 100 µM | [44] > 100 µM | [45] > 100 µM | [46] > 100 µM | [47] > 100 µM | [48] > 100 µM | [49] > 100 µM | [50] > 100 µM | [51] > 100 µM

COc1ccc2c(c1)CC[C@@H]1C2CC[C@]2(C)C(=O)N(CCN3CCCCC3)C(=O)CC12 (stereo partly drawn)
inactive: [1] > 100 µM | [2] 36.4 µM | [4] > 100 µM | [6] 75.5 µM | [52] > 100 µM | [11] > 100 µM | [12] 21.6 µM | [13] > 100 µM | [14] 44.5 µM | [15] 51.5 µM | [16] > 100 µM | [17] 58.1 µM | [18] 47.6 µM | [19] > 100 µM | [53] > 100 µM | [20] 21.3 µM | [21] 35.8 µM | [22] > 10 µM | [23] 57.3 µM | [25] > 100 µM | [26] > 100 µM | [27] 78.9 µM | [29] > 100 µM | [30] > 100 µM | [54] 74.5 µM | [32] 31.9 µM | [33] > 100 µM | [34] > 100 µM | [35] > 100 µM | [36] 34.8 µM | [37] 60.3 µM | [39] > 100 µM | [41] > 100 µM | [42] 58.5 µM | [43] > 100 µM | [44] 75.3 µM | [47] > 100 µM | [48] 44.3 µM | [49] 21.2 µM | [50] 83.2 µM

C=C1C(=O)OC2CC(C)C3CC(O)OC(OCC)C3(C)CC12 (stereo not drawn)
inactive: [1] 10.2 µM | [2] 28.1 µM | [3] 41.6 µM | [4] 15.4 µM | [55] > 41.8 µM | [5] 17.8 µM | [6] 6.46 µM | [52] 15.8 µM | [56] 33.6 µM | [10] 23.7 µM | [57] 16.8 µM | [11] 11.9 µM | [12] 1.14 µM | [13] 20.9 µM | [14] 16 µM | [15] 17.8 µM | [59] 23.1 µM | [16] 19.3 µM | [17] 11.8 µM | [19] 20.6 µM | [60] 6.01 µM | [20] 14.8 µM | [61] 13.3 µM | [62] 17.5 µM | [63] 18 µM | [64] 17.5 µM | [22] 16.7 µM | [23] 10.9 µM | [24] 25.3 µM | [25] 17.1 µM | [26] 18.6 µM | [27] 7.03 µM | [65] 16.7 µM | [28] 15.3 µM | [29] 21.7 µM | [30] 20.2 µM | [31] 15.7 µM | [66] 19.9 µM | [54] 11.4 µM | [32] 14.8 µM | [33] 18 µM | [34] 26.6 µM | [35] 18.1 µM | [36] 13 µM | [37] 15.3 µM | [38] 15.5 µM | [39] 27.5 µM | [40] 15.8 µM | [41] 26 µM | [42] 15.5 µM | [44] 13.6 µM | [45] 6.85 µM | [67] 16.6 µM | [46] 22 µM | [47] 17.1 µM | [48] 16.3 µM | [49] > 37.6 µM | [50] 22.3 µM
8.38 µM: [58]

O=c1[nH]c(C23CC4CC(CC(C4)C2)C3)cc2c1c(=O)oc1ccccc12
inactive: [1] 1.61 µM | [2] 2.26 µM | [3] 2.83 µM | [4] 2.92 µM | [55] 11.2 µM | [5] 1.86 µM | [6] 12.5 µM | [52] 10 µM | [56] 6.31 µM | [57] 5.31 µM | [11] 3.06 µM | [12] 29.4 µM | [13] 2.7 µM | [15] 3.52 µM | [16] 2.32 µM | [17] 4.07 µM | [19] 14.5 µM | [60] 2.95 µM | [20] 8.65 µM | [61] 6 µM | [62] 3.4 µM | [63] 13.4 µM | [64] 12.8 µM | [22] 10.5 µM | [23] 3.65 µM | [24] 2.19 µM | [25] 9.57 µM | [26] 2.62 µM | [27] 2.58 µM | [65] 3.96 µM | [28] 4.42 µM | [29] 3.15 µM | [30] 4.82 µM | [31] 3.19 µM | [66] 3.27 µM | [54] 3.08 µM | [32] 2.35 µM | [34] 3.71 µM | [35] 4.53 µM | [36] 5.86 µM | [37] 13.8 µM | [38] 4.6 µM | [39] 3.25 µM | [40] 9.18 µM | [41] 4.98 µM | [42] 2.53 µM | [45] 7.59 µM | [67] 8.89 µM | [46] 3.43 µM | [47] 2.53 µM | [48] 19.8 µM | [49] 13.4 µM | [50] 1.61 µM
13.8 µM: [58]
active: [10] 0.32 µM | [14] 1.04 µM | [59] 1.1 µM | [33] 0.944 µM | [44] 0.366 µM

O=C(c1ccccc1)c1ccc(C(c2c(O)c3ccccc3oc2=O)c2c(O)c3ccccc3oc2=O)cc1
30.5 µM: [58]
inactive: [1] 21.2 µM | [2] 24.5 µM | [3] 26.9 µM | [4] 20 µM | [55] 22.5 µM | [5] 16.8 µM | [6] 27.9 µM | [52] 31.7 µM | [56] 31.2 µM | [10] 28 µM | [57] 21 µM | [11] 26.7 µM | [12] 34.1 µM | [13] 28.7 µM | [14] 18.5 µM | [15] 25.1 µM | [59] 24.7 µM | [16] 23.3 µM | [17] 33.5 µM | [19] 18.7 µM | [60] 29.9 µM | [20] 24.7 µM | [61] 34.5 µM | [62] 26.7 µM | [63] 29.4 µM | [64] 28.2 µM | [22] 19.5 µM | [23] 17.9 µM | [24] 23.3 µM | [25] 20 µM | [26] 40.8 µM | [27] 16.6 µM | [65] 22.9 µM | [28] 26.2 µM | [29] 26.9 µM | [30] 23.4 µM | [31] 27 µM | [66] 27 µM | [54] 18.5 µM | [32] 27.2 µM | [33] 22.5 µM | [34] 21.2 µM | [35] 30.3 µM | [36] 28.8 µM | [37] 28.2 µM | [38] 24.5 µM | [39] 18.9 µM | [40] 28.4 µM | [41] 19.6 µM | [42] 19.1 µM | [44] 20.1 µM | [45] 43.9 µM | [67] 34.2 µM | [46] 17.9 µM | [47] 26.6 µM | [48] 22.8 µM | [49] 17.3 µM | [50] 14.8 µM

Reference: ChEMBL document CHEMBL1201862, “PubChem BioAssay data set” (2004)
